Data published in patent publication US6833456B2, “Indolyl-urea derivatives of thienopyridines useful as antiangiogenic agents, and methods for their use” (Agouron Pharmaceuticals, Inc., priority 2002, dated 2004).
Values joined by “and” are separate entries in the source; they are usually repeats but may differ in a detail not shown here. Equal entries are not always repeated.

Tests used:
[1] = molecular target: T1, unphosphorylated VEGF-R2Δ50 (FLVK) (Homo sapiens, UniProt P35968, DEL940-989/E990V); test: VEGF-R2 coupled spectrophotometric assay, unphosphorylated construct (FLVK); format: biochemical; conditions: for inhibition at 0.05 µM: percent inhibition at 50 nM
T1 construct: VEGF-R2Δ50 contains residues 806-939 and 990-1171; made in house; host or cells: baculovirus/insect cell system
Outline: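 Human VEGF-R2Δ50 cytosolic kinase (residues 806-939/990-1171, E990V), baculovirus-expressed, unphosphorylated form. PK/LDH-coupled NADH oxidation at 340 nm with 20 mM poly(E4Y1), 3 mM ATP, 60 mM MgCl2, 2 mM MnCl2, 200 mM HEPES pH 7.5, 5-40 nM enzyme; Ki fitted by Morrison equation.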

[2] = Human liver microsome (HLM) assay; format: in vitro ADME; conditions: human liver microsomes
Procedure: Compound metabolism in human liver microsomes was measured by LC-MS analytical assay procedures as follows. First, human liver microsomes (HLM) were thawed and diluted to 5 mg/mL with cold 100 mM potassium phosphate (KPO4) buffer. Appropriate amounts of KPO4 buffer, NADPH-regenerating solution (containing B-NADP, glucose-6-phosphate, glucose-6-phosphate dehydrogenase, and MgCl2), and HLM were preincubated in 13×100 mm glass tubes at 37° C. for 10 min. (3 tubes per test compound—triplicate). Test compound (5 μM final) was added to each tube to initiate reaction and was mixed by gentle vortexing, followed by incubation at 37° C. […] Samples were centrifuged at 4000 rpm for 20 min. to precipitate proteins and salt (Beckman Allegra 6KR, S/N ALK98DO6, #634). Supernatant was transferred to new 12×75 mm glass tubes and evaporated by Speed-Vac centrifugal vacuum evaporator. Samples were reconstituted in 200 μL 0.1% formic acid/acetonitrile (90/10) and vortexed vigorously to dissolve. The samples were then transferred to separate polypropylene microcentrifuge tubes and centrifuged at 14000×g for 10 min. (Fisher Micro 14, S/N M0017580). […]
The combined compound samples were injected into the LC-MS system, composed of a Hewlett-Packard HP1100 diode array HPLC and a Micromass Quattro II triple quadruple mass spectrometer operating in positive electrospray SIR mode (programmed to scan specifically for the molecular ion of each test compound). Each test compound peak was integrated at each timepoint. […]

[3] = molecular target: T2, KDR (VEGFR2) (Homo sapiens, UniProt P35968); test: KDR (VEGFR2) phosphorylation in PAE-KDR cells assay; format: cell-based; conditions: PAE cells overexpressing human KDR, VEGF stimulated; read-out: PAE KDR autophos IC50
T2 construct: expressed in transfected cells; host or cells: porcine aorta endothelial (PAE) cells
Outline: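 PAE cells overexpressing human KDR, serum-starved 16 h (0.1% FBS), treated with compound 1 h at 37° C (0.5% DMSO), then stimulated 8 min with 500 ng/ml VEGF plus 2 mM Na3VO4. Lysate KDR phosphotyrosine measured by capture ELISA (anti-pY HRP, 450 nm); IC50 by four-parameter fit.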

T1 sequence (P35968 with tags, fused parts or gaps DEL940-989/E990V limits assumed): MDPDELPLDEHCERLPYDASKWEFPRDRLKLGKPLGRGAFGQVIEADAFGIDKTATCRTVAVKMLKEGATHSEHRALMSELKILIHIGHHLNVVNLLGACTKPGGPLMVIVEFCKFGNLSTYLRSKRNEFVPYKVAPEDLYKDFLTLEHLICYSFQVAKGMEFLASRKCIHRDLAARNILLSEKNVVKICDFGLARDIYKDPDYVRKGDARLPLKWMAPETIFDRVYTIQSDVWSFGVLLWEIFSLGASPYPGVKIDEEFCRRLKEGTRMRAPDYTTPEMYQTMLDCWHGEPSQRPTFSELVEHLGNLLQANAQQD
T2 sequence (P35968 20-1356): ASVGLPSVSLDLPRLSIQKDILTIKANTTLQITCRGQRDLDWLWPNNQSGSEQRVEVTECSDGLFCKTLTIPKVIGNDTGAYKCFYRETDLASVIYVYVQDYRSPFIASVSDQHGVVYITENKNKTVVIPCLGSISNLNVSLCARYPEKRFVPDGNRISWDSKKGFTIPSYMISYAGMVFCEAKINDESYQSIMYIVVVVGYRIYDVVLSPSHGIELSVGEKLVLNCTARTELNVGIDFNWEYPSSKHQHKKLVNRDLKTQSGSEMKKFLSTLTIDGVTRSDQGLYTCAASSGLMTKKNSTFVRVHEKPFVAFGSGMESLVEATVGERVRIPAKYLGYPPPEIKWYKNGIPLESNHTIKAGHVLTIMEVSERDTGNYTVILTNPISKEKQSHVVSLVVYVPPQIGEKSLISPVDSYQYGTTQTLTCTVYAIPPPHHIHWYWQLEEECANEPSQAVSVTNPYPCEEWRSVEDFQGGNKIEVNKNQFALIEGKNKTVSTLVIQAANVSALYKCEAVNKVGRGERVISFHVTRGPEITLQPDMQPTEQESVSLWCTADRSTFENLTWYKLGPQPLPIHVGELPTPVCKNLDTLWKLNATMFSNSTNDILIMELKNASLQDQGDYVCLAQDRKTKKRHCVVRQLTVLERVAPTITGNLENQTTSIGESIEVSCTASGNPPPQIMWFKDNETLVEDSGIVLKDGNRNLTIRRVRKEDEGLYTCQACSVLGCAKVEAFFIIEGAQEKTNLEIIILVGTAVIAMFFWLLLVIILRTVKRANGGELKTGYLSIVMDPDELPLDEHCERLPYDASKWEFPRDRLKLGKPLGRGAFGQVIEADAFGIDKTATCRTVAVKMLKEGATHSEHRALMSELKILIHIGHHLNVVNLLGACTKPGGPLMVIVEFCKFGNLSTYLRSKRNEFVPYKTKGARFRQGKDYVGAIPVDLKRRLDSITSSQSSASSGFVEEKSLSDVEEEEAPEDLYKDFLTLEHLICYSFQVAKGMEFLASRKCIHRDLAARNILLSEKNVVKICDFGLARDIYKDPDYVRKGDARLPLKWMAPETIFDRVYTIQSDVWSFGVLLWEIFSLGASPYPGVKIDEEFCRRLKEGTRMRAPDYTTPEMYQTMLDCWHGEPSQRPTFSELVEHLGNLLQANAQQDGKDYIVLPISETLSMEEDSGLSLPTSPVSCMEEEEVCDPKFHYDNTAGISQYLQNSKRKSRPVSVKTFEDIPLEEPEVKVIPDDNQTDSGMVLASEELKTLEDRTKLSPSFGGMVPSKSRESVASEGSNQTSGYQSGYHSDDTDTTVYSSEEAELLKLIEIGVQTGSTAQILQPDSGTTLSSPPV

SMILES	Ki [1]	inhibition at 0.05 µM [1]	% remain (HLM-NADPH, 0.5 h) [2]	IC50 [3]	% remain (HLM-UDPGA, 0.5 h) [2]
CNC(=O)n1c(C)cc2cc(Nc3ccnc4cc(C(=O)N5CCC[C@H]5COC)sc34)ccc21 [Example 1t, 5-(2-[(S)-2-(methoxymethyl)pyrrolidine-1-carbonyl]thieno[3,2-b]pyridin-7-ylamino)-2-methylindole-1-carboxylic acid methylamide]	1.13 nM	87%	76.3%	0.67 nM and 0.35 nM and 0.41 nM	–
CNC(=O)n1c(C)cc2cc(Nc3ccnc4cc(-c5nccn5C)sc34)ccc21 [Example 2a, 5-(2-[1-methyl-1H-imidazol-2-yl]thieno[3,2-b]pyridin-7-ylamino)-2-methylindole-1-carboxylic acid methylamide]	2.1 nM	84%	91.1%	0.36 nM and 0.28 nM and 0.32 nM	101.8%
CNC(=O)n1c(C)cc2cc(Nc3ccnc4cc(C(=O)N5CCC[C@H]5CO)sc34)ccc21 [Example 2b, 5-(2-[(S)-2-(hydroxymethyl)pyrrolidine-1-carbonyl]thieno[3,2-b]pyridin-7-ylamino)-2-methylindole-1-carboxylic acid methylamide]	1.03 nM	85%	92.1%	1.42 nM and 1.43 nM and 1.27 nM	104.8%
COC[C@H]1CCCN1C(=O)c1cc2nccc(Nc3ccc4c(c3)cc(C)n4C(=O)NC3CC3)c2s1 [Example 1d, 5-[2-(2R-Methoxymethyl-pyrrolidine-1-carbonyl)-thieno[3,2-b]pyridin-7-ylamino]-2-methyl-indole-1-carboxylic acid cyclopropylamide]	1.1 nM	97%	85%	0.45 nM and 0.51 nM	–
COC[C@@H]1CCCN1C(=O)c1cc2nccc(Nc3ccc4c(c3)cc(C)n4C(=O)NC3CC3)c2s1 [Example 2c, 5-(2-[(S)-2-(methoxymethyl)pyrrolidine-1-carbonyl]thieno[3,2-b]pyridin-7-ylamino)-2-methylindole-1-carboxylic acid cyclopropylamide]	0.56 nM	97%	76.2%	0.67 nM and 0.42 nM (2×)	–

Now from value to molecule:

Ki [1]	inhibition at 0.05 µM [1]	% remain (HLM-NADPH, 0.5 h) [2]	IC50 [3]	% remain (HLM-UDPGA, 0.5 h) [2]	SMILES
0.13 nM	97%	70.9%	0.21 nM (2×) and 0.25 nM	–	COC[C@@H]1CCCN1C(=O)c1cc2nccc(Oc3ccc4c(c3)cc(C)n4C(=O)NC3CC3)c2s1 [Example 4b, 5-(2-[(S)-2-(methoxymethyl)pyrrolidine-1-carbonyl]thieno[3,2-b]pyridin-7-yloxy)-2-methylindole-1-carboxylic acid cyclopropylamide]
0.1 nM	96%	76.1%	0.28 nM and 0.24 nM and 0.36 nM	–	C#CCNC(=O)n1c(C)cc2cc(Oc3ccnc4cc(C(=O)N5CCC[C@H]5COC)sc34)ccc21 [Example 4c, 5-(2-[(S)-2-(methoxymethyl)pyrrolidine-1-carbonyl]thieno[3,2-b]pyridin-7-yloxy)-2-methylindole-1-carboxylic acid prop-2-ynylamide]
